Laboratory results from US20060089378A1 (priority 2004, published 2006).
Where two headings read alike, the source gives them in different places.

Assays:
[1] = molecular target: T1, Cannabinoid CB1 Receptor (Homo sapiens, UniProt P21554); test: Binding assay for CB1 agonists or inverse agonists (radioligand competition, membranes of transfected SK-N-MC cells)
T1 construct: expressed in transfected cells

[2] = molecular target: CB1 receptor (human) (Homo sapiens, UniProt P21554); test: cell-based
Sequence of CB1 receptor (human) (P21554 whole entry): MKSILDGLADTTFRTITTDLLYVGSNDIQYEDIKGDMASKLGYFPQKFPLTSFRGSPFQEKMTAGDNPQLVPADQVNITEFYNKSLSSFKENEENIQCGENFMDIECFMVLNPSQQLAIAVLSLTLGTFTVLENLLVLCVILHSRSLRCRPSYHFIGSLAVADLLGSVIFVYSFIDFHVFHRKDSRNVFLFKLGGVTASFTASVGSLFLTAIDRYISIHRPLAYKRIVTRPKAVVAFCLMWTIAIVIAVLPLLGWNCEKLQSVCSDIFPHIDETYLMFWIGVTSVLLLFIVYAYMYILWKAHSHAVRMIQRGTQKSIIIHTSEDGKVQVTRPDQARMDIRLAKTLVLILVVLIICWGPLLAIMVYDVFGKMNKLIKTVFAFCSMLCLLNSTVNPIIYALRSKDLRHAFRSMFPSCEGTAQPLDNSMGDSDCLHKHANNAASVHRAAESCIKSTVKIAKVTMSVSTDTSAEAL

[3] = molecular target: T2, Cannabinoid CB2 Receptor (Homo sapiens, UniProt P34972); test: Binding assay for CB2 agonists or inverse agonists (radioligand competition, membranes of transfected SK-N-MC cells); conditions: read-out: Cannabinoid CB2 Receptor Binding percent inhibition
T2 construct: expressed in transfected cells
T2 sequence (P34972 whole entry): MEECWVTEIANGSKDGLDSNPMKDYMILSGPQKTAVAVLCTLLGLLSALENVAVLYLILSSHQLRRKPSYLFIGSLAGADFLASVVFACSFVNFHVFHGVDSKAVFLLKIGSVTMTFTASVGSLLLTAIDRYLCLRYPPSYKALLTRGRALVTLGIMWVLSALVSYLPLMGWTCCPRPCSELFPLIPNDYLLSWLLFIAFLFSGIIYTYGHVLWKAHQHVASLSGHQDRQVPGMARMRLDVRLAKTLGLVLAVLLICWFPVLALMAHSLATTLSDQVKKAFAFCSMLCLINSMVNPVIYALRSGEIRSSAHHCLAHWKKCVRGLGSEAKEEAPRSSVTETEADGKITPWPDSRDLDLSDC

T1 sequence (P21554 whole entry): as the sequence (P21554 whole entry) above

| Structure (SMILES) | IC50 [1] [nM] | EC50 [2] [nM] | inhibition at 0.2 µM [3] [%] | inhibition at 0.2 µM ([1]; read-out: Cannabinoid CB1 Receptor Binding percent inhibition) [%] | inhibition at 0.2 µM ([3]; test concentration of 0.2 μM, compounds without an IC50 binding value) [%] |
| --- | --- | --- | --- | --- | --- |
| CC(NC(=O)c1nn(-c2ccc(Cl)cc2)c2c1CNC/C2=C\c1ccc(F)cc1)c1ccccn1 (stereo not drawn) [Cpd 75, (7E)-1-(4-chloro-phenyl)-7-(4-fluoro-benzylidene)-4,5,6,7-tetrahydro-1H-pyrazolo[4,3-c]pyridine-3-carboxylic acid (1-pyridin-2-yl-ethyl)-amide] | 200 | 40 | 0 | – | – |
| O=C(NN1CCCCC1)c1nn(-c2ccc(Cl)cc2)c2c1CNC/C2=C\c1ccc(F)cc1 [Cpd 76, (7E)-1-(4-chloro-phenyl)-7-(4-fluoro-benzylidene)-4,5,6,7-tetrahydro-1H-pyrazolo[4,3-c]pyridine-3-carboxylic acid piperidin-1-ylamide] | – | 30 | 0 | 48 | – |
| CCNC(=O)N1C/C(=C\c2ccc(F)cc2)c2c(c(C(=O)NC(C)c3ccccn3)nn2-c2ccc(Cl)cc2)C1 (stereo not drawn) [Cpd 77, (7E)-1-(4-chloro-phenyl)-7-(4-fluoro-benzylidene)-1,4,6,7-tetrahydro-pyrazolo[4,3-c]pyridine-3,5-dicarboxylic acid 5-ethylamide 3-[(1-pyridin-2-yl-ethyl)-amide]] | 80 | 10 | 0 | – | – |
| COC(=O)N1C/C(=C\c2ccc(F)cc2)c2c(c(C(=O)NC(C)c3ccccn3)nn2-c2ccc(Cl)cc2)C1 (stereo not drawn) [Cpd 79, (7E)-1-(4-chloro-phenyl)-7-(4-fluoro-benzylidene)-3-(1-pyridin-2-yl-ethylcarbamoyl)-1,4,6,7-tetrahydro-pyrazolo[4,3-c]pyridine-5-carboxylic acid methyl ester] | 10 | 3 | 13 | – | – |
| CC(=O)N1C/C(=C\c2ccc(F)cc2)c2c(c(C(=O)NC(C)c3ccccn3)nn2-c2ccc(Cl)cc2)C1 (stereo not drawn) [Cpd 80, (7E)-5-acetyl-1-(4-chloro-phenyl)-7-(4-fluoro-benzylidene)-4,5,6,7-tetrahydro-1H-pyrazolo[4,3-c]pyridine-3-carboxylic acid (1-pyridin-2-yl-ethyl)-amide] | 100 | 9 | 0 | – | – |
| COC(=O)N1C/C(=C\c2ccc(F)cc2)c2c(c(C(=O)NN3CC4CCCC4C3)nn2-c2ccc(Cl)cc2)C1 (stereo not drawn) [Cpd 87, (7E)-1-(4-chloro-phenyl)-7-(4-fluoro-benzylidene)-3-(hexahydro-cyclopenta[c]pyrrol-2-ylcarbamoyl)-1,4,6,7-tetrahydro-pyrazolo[4,3-c]pyridine-5-carboxylic acid methyl ester] | 50 | 1 | 16 | – | – |
| COc1ccc(/C=C2\CN(C(=O)OC(C)(C)C)Cc3c(C(=O)N[C@H](C)c4ccccn4)nn(-c4ccc(Cl)cc4Cl)c32)cc1 [Cpd 89, (7E)-1-(2,4-dichloro-phenyl)-7-(4-methoxy-benzylidene)-3-[(1R)-1-pyridin-2-yl-ethylcarbamoyl]-1,4,6,7-tetrahydro-pyrazolo[4,3-c]pyridine-5-carboxylic acid tert-butyl ester] | 20 | 5 | 27 | – | – |
| O=C(NN1CC2CCCC2C1)c1nn(-c2ccc(Cl)cc2Cl)c2c1CNC/C2=C\c1ccc(F)cc1 (stereo not drawn) [Cpd 90, (7E)-1-(2,4-dichloro-phenyl)-7-(4-fluoro-benzylidene)-4,5,6,7-tetrahydro-1H-pyrazolo[4,3-c]pyridine-3-carboxylic acid (hexahydro-cyclopenta[c]pyrrol-2-yl)-amide] | 30 | 8 | 15 | – | – |
| CC(=O)N1C/C(=C\c2ccc(F)cc2)c2c(c(C(=O)NN3CC4CCCC4C3)nn2-c2ccc(Cl)cc2Cl)C1 (stereo not drawn) [Cpd 91, (7E)-5-acetyl-1-(2,4-dichloro-phenyl)-7-(4-fluoro-benzylidene)-4,5,6,7-tetrahydro-1H-pyrazolo[4,3-c]pyridine-3-carboxylic acid (hexahydro-cyclopenta[c]pyrrol-2-yl)-amide] | 50 | 3 | 14 | – | – |
| COC(=O)N1C/C(=C\c2ccc(F)cc2)c2c(c(C(=O)NN3CC4CCCC4C3)nn2-c2ccc(Cl)cc2Cl)C1 (stereo not drawn) [Cpd 92, (7E)-1-(2,4-dichloro-phenyl)-7-(4-fluoro-benzylidene)-3-(hexahydro-cyclopenta[c]pyrrol-2-ylcarbamoyl)-1,4,6,7-tetrahydro-pyrazolo[4,3-c]pyridinc-5-carboxylic acid methyl ester] | 20 | 2 | 4 | – | – |
| COc1ccc(/C=C2\CNCc3c(C(=O)N[C@H](C)c4ccccn4)nn(-c4ccc(Cl)cc4Cl)c32)cc1 [Cpd 93, (7E)-1-(2,4-dichloro-phenyl)-7-(4-methoxy-benzylidene)-4,5,6,7-tetrahydro-1H-pyrazolo[4,3-c]pyridine-3-carboxylic acid [(1R)-1-pyridin-2-yl-ethyl]-amide] | 30 | 8 | 7 | – | – |
| COc1ccc(/C=C2\CNCc3c(C(=O)NN4CC5CCCC5C4)nn(-c4ccc(Cl)cc4Cl)c32)cc1 (stereo not drawn) [Cpd 95, (7E)-1-(2,4-dichloro-phenyl)-7-(4-methoxy-benzylidene)-4,5,6,7-tetrahydro-1H-pyrazolo[4,3-c]pyridine-3-carboxylic acid (hexahydro-cyclopenta[c]pyrrol-2-yl)-amide] | 80 | 9 | 20 | – | – |
| COC(=O)N1C/C(=C\c2ccc(OC)cc2)c2c(c(C(=O)N[C@H](C)c3ccccn3)nn2-c2ccc(Cl)cc2Cl)C1 [Cpd 96, (7E)-1-(2,4-dichloro-phenyl)-7-(4-methoxy-benzylidene)-3-[(1R)-1-pyridin-2-yl-ethylcarbamoyl]-1,4,6,7-tetrahydro-pyrazolo[4,3-c]pyridine-5-carboxylic acid methyl ester] | 3 | 1 | 56 | – | – |
| COc1ccc(/C=C2\CN(C(C)=O)Cc3c(C(=O)N[C@H](C)c4ccccn4)nn(-c4ccc(Cl)cc4Cl)c32)cc1 [Cpd 97, (7E)-5-acetyl-1-(2,4-dichloro-phenyl)-7-(4-methoxy-benzylidene)-4,5,6,7-tetrahydro-1H-pyrazolo[4,3-c]pyridine-3-carboxylic acid [(1R)-1-pyridin-2-yl-ethyl]-amide] | 7 | 10 | – | – | 33 |
| CCNC(=O)N1C/C(=C\c2ccc(OC)cc2)c2c(c(C(=O)N[C@H](C)c3ccccn3)nn2-c2ccc(Cl)cc2Cl)C1 [Cpd 98, (7E)-1-(2,4-dichloro-phenyl)-7-(4-methoxy-benzylidene)-1,4,6,7-tetrahydro-pyrazolo[4,3-c]pyridine-3,5-dicarboxylic acid 5-ethylamide 3-{[(1R)-1-pyridin-2-yl-ethyl]-amide}] | 8 | 4 | 17 | – | – |
| COc1ccc(/C=C2\CN(S(C)(=O)=O)Cc3c(C(=O)N[C@H](C)c4ccccn4)nn(-c4ccc(Cl)cc4Cl)c32)cc1 [Cpd 99, (7E)-1-(2,4-dichloro-phenyl)-5-methanesulfonyl-7-(4-methoxy-benzylidene)-4,5,6,7-tetrahydro-1H-pyrazolo[4,3-c]pyridine-3-carboxylic acid [(1R)-1-pyridin-2-yl-ethyl]-amide] | 2 | 3 | 32 | – | – |
